From the METLIN SMRT retention time set (Domingo-Almenara et al. 2019)

Assay: gradient 5% acetonitrile 3 min, to 50% in 2 min, to 85% in 15 min, held 3 min, 100 µL/min
Conditions: column: Zorbax Extend-C18 2.1 x 50 mm; eluents: water / acetonitrile, 0.1% formic acid
How it was run: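 Pure standards were analyzed in mixtures of ~100 molecules using HPLC coupled to a quadrupole time-of-flight mass spectrometer, in both positive and negative ionization mode. Separation used a Zorbax Extend-C18 column (2.1 × 50 mm, 1.8 μm) at 100 μL/min, with water and acetonitrile each containing 0.1% formic acid. Dead and dwell volumes were 40 μL and 900 μL, and data were collected over 3 months. Retention time was read from computationally picked adduct peaks, each inspected manually.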

SMILES	RP-LC retention time
O=C(Cn1nc(-c2cccs2)ccc1=O)Nc1nc2c(s1)CCCC2	741 s
COC(=O)c1ccc2c(=O)n(-c3ccc(Cl)cc3)c(N3CCN(C4CCCCC4)CC3)nc2c1	754 s
CCCCC(=O)Nc1ccc(OCc2cc(C(=O)NC(C)C)no2)cc1	827 s
O=C(C1=CN(c2ccc(Cl)cc2)c2cc(F)ccc2S1(=O)=O)N1CCCC1	858 s
O=C(c1ccc2c(c1)OCO2)N1CCN(c2cc(-c3ccccc3)[nH]n2)CC1	733 s
CC(C)CNC(=O)C1CCN(c2cnc(N3CCCCCC3)nc2)CC1	716 s
CCOc1ccc(NC(=O)N2CCC(N(C)C(C)C)CC2)cc1	588 s
CC(C)(C)OC(=O)CN(c1ccc(F)cc1)S(=O)(=O)c1cccn2cnnc12	776 s
Cc1ccc(CNC(=O)c2nc3cccnc3n(C)c2=O)cc1	787 s
CCOc1ccc(CNC(=O)C2CCCN(c3cc(=O)n(C)c(=O)n3C)C2)cc1 (stereo not given)	709 s
Cc1cc(NC(=O)c2c(O)c3cccnc3n(-c3ccccc3)c2=O)ccc1F	1160 s
COc1cc(S(=O)(=O)NCc2ccccc2)c(OC)cc1Br	867 s
CCn1cc(S(=O)(=O)N2CCC(Cc3nc(-c4cccnc4)n[nH]3)C2)cn1 (stereo not given)	592 s
Cc1nnc2n1CCC(NC(=O)Cc1ccsc1)CC2 (stereo not given)	573 s
CCc1ccc(N2C=C(C(=O)N3CCOCC3)S(=O)(=O)c3ccc(F)cc32)cc1	873 s
CCN1C(=O)c2cc(S(=O)(=O)NCc3cccc(Cl)c3)ccc2Oc2cccnc21	1030 s
Cn1cc(CCN2CCN(S(=O)(=O)c3cccc(C#N)c3)CC2)c2cccnc21	608 s
CSc1cccc(-n2ccc(=O)c(-c3nc(-c4ccccc4)no3)n2)c1	971 s
CCCS(=O)(=O)c1nc2ccc(NS(=O)(=O)c3ccccc3F)cc2s1	882 s
CC(C)n1cc2cc(C(=O)N(C)CCc3ccncc3)sc2c1	709 s
O=C(CSc1nc2ncccc2[nH]1)NC1CCCCC1	621 s
CN1C(=O)c2cccn2CC1CNC(=O)NCc1ccc(F)cc1 (stereo not given)	658 s
Cn1cnc(S(=O)(=O)NCCC2CCN(C(=O)c3ccccc3)CC2)c1	653 s

SMILES	RP-LC retention time
COc1ccc(-c2nc(-n3c(C)c4c(C)nnc(C)c4c3C)sc2C)cc1	726 s
O=C(Cc1ccccc1)Nc1c(C(=O)N2CCN(c3ccccn3)CC2)oc2ccccc12	673 s
Cc1ccc(C)c(-c2coc(-c3ccc(NC(=O)NCc4ccco4)cc3)n2)c1	1110 s
CCn1ccc(C(=O)N2CCCC2c2ccccc2C)n1 (stereo not given)	870 s
Cc1cccc(-c2nnc(-c3ccc(Cl)c(S(=O)(=O)N4CCCC4)c3)o2)c1	1150 s
COc1cccc(-c2noc(Cn3ccn(-c4ccccc4C)c(=O)c3=O)n2)c1OC	798 s
O=S(=O)(c1ccc2c(c1)CCCC2)N1CCN(c2ccc(-c3ccco3)nn2)CC1	903 s
O=S(=O)(Nc1ccc(-c2noc(COc3ccc(F)cc3)n2)cc1)c1cccs1	1040 s
CN(CCc1noc(-c2ccc(Cl)cc2)n1)C(=O)NCc1ccccc1	932 s
Cn1nc(C(=O)N2C[C@@H]3C[C@H](NC(=O)c4cccnc4)[C@H]2C3)c2ccccc21	636 s
CCCn1cnnc1C1CCN(Cc2cccc(OCC)c2)CC1	601 s
Cc1cc(C(=O)Nc2nnc(-c3cccs3)o2)no1	632 s
O=C1CCN(C(=O)COc2ccc(Cl)cc2)c2ccccc2N1	691 s
COc1ccc(N2CCN(c3cc(SCC(=O)Nc4ccc(C)cc4F)ncn3)CC2)cc1	1110 s
O=C(O)c1ccc(-c2nnc3ccc(NC(=O)C4CCC4)cn23)cc1	683 s
Cc1ccc(NC(=O)N2CCC(c3cc(N)on3)CC2)cc1F	733 s
CN1CCN(CCNC(=O)C2CCCN(c3ncnc4c3nc3n4CCCCC3)C2)CC1 (stereo not given)	570 s
O=C1CC(c2noc(-c3ccc(F)cc3)n2)CN1c1ccc(F)cc1 (stereo not given)	961 s
O=C(NCc1ccc(F)c(Cl)c1)c1ccc(NC(=O)C2CCC2)cc1N1CCOCC1	909 s
COc1ccc(NC(=O)CN2C(=O)NC3(CCCCC3)C2=O)cc1Cl	778 s
CN(Cc1ccccc1)c1ccc(-c2noc(CN3CCSCC3)n2)cn1	930 s
COc1ccc(CCC(=O)N2CCc3c(c(C(=O)N4CCCC(C(=O)NC5CC5)C4)nn3C)C2)cc1 (stereo not given)	649 s
